Several values for one entry are separate records, joined by “and”; a condition that tells them apart may be missing. Equal entries are not always repeated.
Test system: GEMS receptors with CBPvene (Bcl2–LD3 and Bcl2high variants), STAT3-driven SEAP in HEK293T cells
Assay: GEMS SEAP reporter assay, CBPvene (Bcl2high, LD3-v and Bcl2-v variants) with venetoclax
Assay type: cell-based
Conditions: for SEAP, replicate values: Supplementary Figure 8e
[1] = SuppFigure 8b, LD3, venetoclax 10 nM
[2] = SuppFigure 8b, LD3, venetoclax 31.6 nM
[3] = SuppFigure 8b, LD3, venetoclax 100 nM
[4] = SuppFigure 8b, LD3, venetoclax 316 nM
[5] = SuppFigure 8b, LD3, venetoclax 1000 nM
[6] = SuppFigure 8b, LD3, venetoclax 3160 nM
[7] = SuppFigure 8b, LD3, venetoclax 10000 nM
[8] = SuppFigure 8b, LD3v1, venetoclax 1 nM
[9] = SuppFigure 8b, LD3v1, venetoclax 3.16 nM
[10] = SuppFigure 8b, LD3v1, venetoclax 10 nM
[11] = SuppFigure 8b, LD3v1, venetoclax 31.6 nM
[12] = SuppFigure 8b, LD3v1, venetoclax 100 nM
[13] = SuppFigure 8b, LD3v1, venetoclax 316 nM
[14] = SuppFigure 8b, LD3v1, venetoclax 1000 nM
[15] = SuppFigure 8b, LD3v1, venetoclax 3160 nM
[16] = SuppFigure 8b, LD3v1, venetoclax 10000 nM
[17] = SuppFigure 8b, LD3v2, venetoclax 1 nM
[18] = SuppFigure 8b, LD3v2, venetoclax 3.16 nM
[19] = SuppFigure 8b, LD3v2, venetoclax 10 nM
[20] = SuppFigure 8b, LD3v2, venetoclax 31.6 nM
[21] = SuppFigure 8b, LD3v2, venetoclax 100 nM
[22] = SuppFigure 8b, LD3v2, venetoclax 316 nM
[23] = SuppFigure 8b, LD3v2, venetoclax 1000 nM
[24] = SuppFigure 8b, LD3v2, venetoclax 3160 nM
[25] = SuppFigure 8b, LD3v2, venetoclax 10000 nM
[26] = SuppFigure 8b, LD3v3, venetoclax 1 nM
[27] = SuppFigure 8b, LD3v3, venetoclax 3.16 nM
[28] = SuppFigure 8b, LD3v3, venetoclax 10 nM
[29] = SuppFigure 8b, LD3v3, venetoclax 31.6 nM
[30] = SuppFigure 8b, LD3v3, venetoclax 100 nM
[31] = SuppFigure 8b, LD3v3, venetoclax 316 nM
[32] = SuppFigure 8b, LD3v3, venetoclax 1000 nM
[33] = SuppFigure 8b, LD3v3, venetoclax 3160 nM
[34] = SuppFigure 8b, LD3v3, venetoclax 10000 nM
[35] = SuppFigure 8c, LD3, venetoclax 1 nM
[36] = SuppFigure 8c, LD3, venetoclax 3.16 nM
[37] = SuppFigure 8c, LD3, venetoclax 10 nM
[38] = SuppFigure 8c, LD3, venetoclax 31.6 nM
[39] = SuppFigure 8c, LD3, venetoclax 100 nM
[40] = SuppFigure 8c, LD3, venetoclax 316 nM
[41] = SuppFigure 8c, LD3, venetoclax 1000 nM
[42] = SuppFigure 8c, LD3, venetoclax 3160 nM
[43] = SuppFigure 8c, LD3, venetoclax 10000 nM
[44] = SuppFigure 8c, LD3v1, venetoclax 1 nM
[45] = SuppFigure 8c, LD3v1, venetoclax 3.16 nM
[46] = SuppFigure 8c, LD3v1, venetoclax 10 nM
[47] = SuppFigure 8c, LD3v1, venetoclax 31.6 nM
[48] = SuppFigure 8c, LD3v1, venetoclax 100 nM
[49] = SuppFigure 8c, LD3v1, venetoclax 316 nM
[50] = SuppFigure 8c, LD3v1, venetoclax 1000 nM
[51] = SuppFigure 8c, LD3v1, venetoclax 3160 nM
[52] = SuppFigure 8c, LD3v1, venetoclax 10000 nM
[53] = SuppFigure 8c, LD3v2, venetoclax 1 nM
[54] = SuppFigure 8c, LD3v2, venetoclax 3.16 nM
[55] = SuppFigure 8c, LD3v2, venetoclax 10 nM
[56] = SuppFigure 8c, LD3v2, venetoclax 31.6 nM
[57] = SuppFigure 8c, LD3v2, venetoclax 100 nM
[58] = SuppFigure 8c, LD3v2, venetoclax 316 nM
[59] = SuppFigure 8c, LD3v2, venetoclax 1000 nM
[60] = SuppFigure 8c, LD3v2, venetoclax 3160 nM
[61] = SuppFigure 8c, LD3v2, venetoclax 10000 nM
[62] = SuppFigure 8c, LD3v3, venetoclax 1 nM
[63] = SuppFigure 8c, LD3v3, venetoclax 3.16 nM
[64] = SuppFigure 8c, LD3v3, venetoclax 10 nM
[65] = SuppFigure 8c, LD3v3, venetoclax 31.6 nM
[66] = SuppFigure 8c, LD3v3, venetoclax 100 nM
[67] = SuppFigure 8c, LD3v3, venetoclax 316 nM
[68] = SuppFigure 8c, LD3v3, venetoclax 1000 nM
[69] = SuppFigure 8c, LD3v3, venetoclax 3160 nM
[70] = SuppFigure 8c, LD3v3, venetoclax 10000 nM

## CC1(C)CCC(CN2CCN(c3ccc(C(=O)NS(=O)(=O)c4ccc(NCC5CCOCC5)c([N+](=O)[O-])c4)c(Oc4cnc5[nH]ccc5c4)c3)CC2)=C(c2ccc(Cl)cc2)C1 [Venetoclax]
[1]
  Normalized data (SEAP): 4.498
  Raw data (SEAP): 18.9052
[2]
  Normalized data (SEAP): 14.8552
  Raw data (SEAP): 62.4429
[3]
  Normalized data (SEAP): 43.1759
  Raw data (SEAP): 181.487
[4]
  Normalized data (SEAP): 91.7223
  Raw data (SEAP): 385.549
[5]
  Normalized data (SEAP): 100
  Raw data (SEAP): 420.344
[6]
  Normalized data (SEAP): 92.3499
  Raw data (SEAP): 388.188
[7]
  Normalized data (SEAP): 51.2329
  Raw data (SEAP): 215.355
[8]
  Normalized data (SEAP): 9.345
  Raw data (SEAP): 17.9682
[9]
  Normalized data (SEAP): 9.034
  Raw data (SEAP): 17.3705
[10]
  Normalized data (SEAP): 10.4886
  Raw data (SEAP): 20.1681
[11]
  Normalized data (SEAP): 19.5956
  Raw data (SEAP): 37.6794
[12]
  Normalized data (SEAP): 44.2027
  Raw data (SEAP): 84.9952
[13]
  Normalized data (SEAP): 100
  Raw data (SEAP): 192.285
[14]
  Normalized data (SEAP): 87.7314
  Raw data (SEAP): 168.695
[15]
  Normalized data (SEAP): 49.2054
  Raw data (SEAP): 94.6147
[16]
  Normalized data (SEAP): 19.8616
  Raw data (SEAP): 38.191
[17]
  Normalized data (SEAP): 3.604
  Raw data (SEAP): 12.0656
[18]
  Normalized data (SEAP): 3.9805
  Raw data (SEAP): 13.3245
[19]
  Normalized data (SEAP): 4.834
  Raw data (SEAP): 16.18
[20]
  Normalized data (SEAP): 12.8068
  Raw data (SEAP): 42.87
[21]
  Normalized data (SEAP): 33.7173
  Raw data (SEAP): 112.867
[22]
  Normalized data (SEAP): 77.9659
  Raw data (SEAP): 260.986
[23]
  Normalized data (SEAP): 100
  Raw data (SEAP): 334.744
[24]
  Normalized data (SEAP): 66.077
  Raw data (SEAP): 221.189
[25]
  Normalized data (SEAP): 30.9558
  Raw data (SEAP): 103.623
[26]
  Normalized data (SEAP): 59.1038
  Raw data (SEAP): 11.2669
[27]
  Normalized data (SEAP): 71.809
  Raw data (SEAP): 13.6889
[28]
  Normalized data (SEAP): 61.7452
  Raw data (SEAP): 11.7704
[29]
  Normalized data (SEAP): 69.7498
  Raw data (SEAP): 13.2963
[30]
  Normalized data (SEAP): 80.5519
  Raw data (SEAP): 15.3555
[31]
  Normalized data (SEAP): 100
  Raw data (SEAP): 19.0629
[32]
  Normalized data (SEAP): 89.5017
  Raw data (SEAP): 17.0616
[33]
  Normalized data (SEAP): 75.6488
  Raw data (SEAP): 14.4208
[34]
  Normalized data (SEAP): 59.7156
  Raw data (SEAP): 11.3835
[35]
  Normalized data (SEAP): 3.575
  Raw data (SEAP): 13.7218
[36]
  Normalized data (SEAP): 3.97
  Raw data (SEAP): 15.2365
[37]
  Normalized data (SEAP): 6.118
  Raw data (SEAP): 23.4789
[38]
  Normalized data (SEAP): 19.9083
  Raw data (SEAP): 76.4036
[39]
  Normalized data (SEAP): 50.1718
  Raw data (SEAP): 192.548
[40]
  Normalized data (SEAP): 93.753
  Raw data (SEAP): 359.804
[41]
  Normalized data (SEAP): 100
  Raw data (SEAP): 383.778
[42]
  Normalized data (SEAP): 77.866
  Raw data (SEAP): 298.833
[43]
  Normalized data (SEAP): 35.1914
  Raw data (SEAP): 135.057
[44]
  Normalized data (SEAP): 13.8401
  Raw data (SEAP): 15.4633
[45]
  Normalized data (SEAP): 14.8573
  Raw data (SEAP): 16.5999
[46]
  Normalized data (SEAP): 15.6025
  Raw data (SEAP): 17.4324
[47]
  Normalized data (SEAP): 28.6773
  Raw data (SEAP): 32.0407
[48]
  Normalized data (SEAP): 48.5828
  Raw data (SEAP): 54.2809
[49]
  Normalized data (SEAP): 100
  Raw data (SEAP): 111.729
[50]
  Normalized data (SEAP): 98.9424
  Raw data (SEAP): 110.547
[51]
  Normalized data (SEAP): 75.2543
  Raw data (SEAP): 84.0806
[52]
  Normalized data (SEAP): 21.4009
  Raw data (SEAP): 23.9109
[53]
  Normalized data (SEAP): 4.916
  Raw data (SEAP): 14.375
[54]
  Normalized data (SEAP): 5.386
  Raw data (SEAP): 15.7505
[55]
  Normalized data (SEAP): 6.285
  Raw data (SEAP): 18.3792
[56]
  Normalized data (SEAP): 18.3149
  Raw data (SEAP): 53.5545
[57]
  Normalized data (SEAP): 44.7805
  Raw data (SEAP): 130.943
[58]
  Normalized data (SEAP): 92.9232
  Raw data (SEAP): 271.716
[59]
  Normalized data (SEAP): 100
  Raw data (SEAP): 292.41
[60]
  Normalized data (SEAP): 75.7485
  Raw data (SEAP): 221.496
[61]
  Normalized data (SEAP): 31.6477
  Raw data (SEAP): 92.541
[62]
  Normalized data (SEAP): 39.2835
  Raw data (SEAP): 15.066
[63]
  Normalized data (SEAP): 40.4811
  Raw data (SEAP): 15.5253
[64]
  Normalized data (SEAP): 41.5277
  Raw data (SEAP): 15.9266
[65]
  Normalized data (SEAP): 52.0376
  Raw data (SEAP): 19.9574
[66]
  Normalized data (SEAP): 75.9664
  Raw data (SEAP): 29.1345
[67]
  Normalized data (SEAP): 100
  Raw data (SEAP): 38.3518
[68]
  Normalized data (SEAP): 67.7678
  Raw data (SEAP): 25.9902
[69]
  Normalized data (SEAP): 51.723
  Raw data (SEAP): 19.8367
[70]
  Normalized data (SEAP): 31.0619
  Raw data (SEAP): 11.9128
CBPVene-v5-LD3v1, venetoclax 100 nM
  SEAP, replicate values: 98.3781 and 87.1331 and 45.1145
CBPVene-v5-LD3v1, venetoclax 3160 nM
  SEAP, replicate values: 13.0779
CBPVene-v5, venetoclax 100 nM
  SEAP, replicate values: 341.722 and 335.341
Venetoclax 10000 nM, construct CBPVene-v4-LD3v1, three replicate columns
  Raw data Figure 5c, CBPVene-v4-LD3v1 (SEAP reporter raw value, single replicate): 307.085 and 269.935 and 317.486
Venetoclax 10000 nM, construct CBPVene-v4, three replicate columns
  Raw data Figure 5c, CBPVene-v4 (SEAP reporter raw value, single replicate): 10.3692 and 8.227 and 12.3711

Reference: PMC11062894, “Protein-based bandpass filters for controlling cellular signaling with chemical inputs” (Nature Chemical Biology, 2023)
